The values below come from ChEMBL document CHEMBL1201862, “PubChem BioAssay data set” (2004).

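Assay format: 96-well plates, 48-hour exposure. Here, GI50 denotes the concentration required for 50% inhibition of growth.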 Calls of active or inactive are those of the source. Cut-off read from the data, not from the text of the source: active = GI50 up to about 1.1 µM and inactive = higher. Bounds are passed on as bounds.

Test systems include ACHN; COLO 205; EKVX; HCC 2998; HL-60; LXFL 529; M14; MOLT-4; Malme-3M; NCI-H226; NCI-H522; OVCAR-4; OVCAR-5; RPMI-8226; RXF 393; SF-295; SK-MEL-2; SR; U-251; UO-31.
Common to all, as to assay: inhibition of tumour cell growth, NCI panel, 48 h

With `O=C(O)C1OC(n2cc(F)c(=O)[nH]c2=O)CC1O` (stereo not given), the GI50 in the assay with ACHN was 2.46 µM (inactive); with COLO 205 it was 61.5 µM (inactive); in the assay on EKVX, > 82.8 µM (inactive); in the assay with HCC 2998 it was 0.574 µM (active); in the assay on HL-60 it was 30.8 µM (inactive); in the assay on LXFL 529, 8.99 µM (inactive). In addition, the GI50 in the assay on M14 is 29.4 µM (inactive); in the assay with MOLT-4, 7.73 µM (inactive); with Malme-3M it was > 100 µM (inactive); in the assay with NCI-H226, > 83.9 µM (inactive); in the assay on NCI-H522, 25.9 µM (inactive); with OVCAR-4, > 100 µM (inactive). The GI50 is > 100 µM (inactive) in the assay with OVCAR-5; 61.7 µM (inactive) in the assay with RPMI-8226; > 87.9 µM (inactive) with RXF 393; 5.47 µM (inactive) with SF-295; > 100 µM (inactive) in the assay with SK-MEL-2; 6.11 µM (inactive) with SR. Further, the GI50 is 35.2 µM (inactive) in the assay on U-251 and 18.6 µM (inactive) in the assay on UO-31.
As for `COc1ccc(C(c2c(O)c3ccccc3n(C)c2=O)c2c(O)c3ccccc3n(C)c2=O)cc1`, the GI50 in the assay with ACHN was 46.5 µM (inactive); in the assay with COLO 205 it was 57.3 µM (inactive); in the assay on EKVX, 34.8 µM (inactive); with HCC 2998, 40.2 µM (inactive); in the assay with HL-60, 31.6 µM (inactive); in the assay with LXFL 529, 46.1 µM (inactive). Further, the GI50 in the assay on M14 is 34.9 µM (inactive); in the assay with MOLT-4 it was 35.9 µM (inactive); in the assay on Malme-3M, 47.2 µM (inactive); in the assay on NCI-H226 it was 24.5 µM (inactive); with NCI-H522, 9.77 µM (inactive); in the assay on OVCAR-4, 62.8 µM (inactive). The GI50 is 32.3 µM (inactive) in the assay with OVCAR-5; 46 µM (inactive) in the assay with RPMI-8226; 73.3 µM (inactive) with RXF 393; 36.5 µM (inactive) in the assay on SF-295; > 100 µM (inactive) in the assay on SK-MEL-2; 51.4 µM (inactive) in the assay with SR. Also, the GI50 was 19.1 µM (inactive) in the assay on U-251 and 36.5 µM (inactive) in the assay with UO-31.
For `CCCCn1c(-c2ccccc2)cs/c1=N\NC(=O)Cn1c(C)nc2ccccc21`, the GI50 in the assay on ACHN was 75.9 µM (inactive); in the assay with COLO 205, 17.1 µM (inactive); with EKVX, 47.1 µM (inactive); in the assay with HCC 2998, 89.1 µM (inactive); in the assay on HL-60, 14.4 µM (inactive); in the assay with LXFL 529, 25.1 µM (inactive). Moreover, the GI50 is 53.2 µM (inactive) with M14; 16.3 µM (inactive) in the assay with MOLT-4; 35.7 µM (inactive) with Malme-3M; 35.8 µM (inactive) in the assay with NCI-H226; 30.2 µM (inactive) in the assay on NCI-H522; 6.12 µM (inactive) in the assay on OVCAR-4. Further, the GI50 in the assay with OVCAR-5 is > 100 µM (inactive); in the assay on RPMI-8226, 14.7 µM (inactive); in the assay with RXF 393 it was 34.3 µM (inactive); with SF-295 it was 33.5 µM (inactive); in the assay on SK-MEL-2 it was > 100 µM (inactive); in the assay with SR, 11.5 µM (inactive). The figures for the GI50 in the assay on U-251 and with UO-31 were 96.2 µM (inactive) and 55.6 µM (inactive), respectively.
For the compound `C=C1C(=O)OC2CC3(C)OC3CC/C(C)=C/C(OC(C)=O)C12` (stereo not given), the GI50 in the assay with ACHN is 11.2 µM (inactive); with COLO 205 it was 1.75 µM (inactive); in the assay with EKVX, 16.9 µM (inactive); in the assay on HCC 2998, 16.9 µM (inactive); with HL-60, 1.41 µM (inactive); in the assay with LXFL 529 it was 2.14 µM (inactive). Also, the GI50 was 3.32 µM (inactive) with M14; 3.37 µM (inactive) in the assay on MOLT-4; 2.55 µM (inactive) in the assay on Malme-3M; 7.45 µM (inactive) in the assay with NCI-H226; 1.04 µM (active) in the assay on NCI-H522; 6.01 µM (inactive) in the assay with OVCAR-4. Further, the GI50 in the assay with OVCAR-5 is 8.51 µM (inactive); in the assay on RPMI-8226, 2.13 µM (inactive); in the assay with RXF 393 it was 4.79 µM (inactive); in the assay with SF-295, 14 µM (inactive); in the assay on SK-MEL-2 it was 15.5 µM (inactive); in the assay on SR it was 3.07 µM (inactive). Moreover, the GI50 was 18.6 µM (inactive) with U-251 and 13.6 µM (inactive) with UO-31.
